Ki data for two compounds are collected here from ChEMBL document CHEMBL2074474, “Prodrugs of purine and pyrimidine analogues for the intestinal di/tri-peptide transporter PepT1: affinity for hPepT1 in Caco-2 cells, drug release in aqueous media and in vitro metabolism” (J Control Release, 2003).

The experiment addresses T1, Solute carrier family 15 member 1 (Homo sapiens, UniProt P46059).
T1 sequence (P46059 whole entry): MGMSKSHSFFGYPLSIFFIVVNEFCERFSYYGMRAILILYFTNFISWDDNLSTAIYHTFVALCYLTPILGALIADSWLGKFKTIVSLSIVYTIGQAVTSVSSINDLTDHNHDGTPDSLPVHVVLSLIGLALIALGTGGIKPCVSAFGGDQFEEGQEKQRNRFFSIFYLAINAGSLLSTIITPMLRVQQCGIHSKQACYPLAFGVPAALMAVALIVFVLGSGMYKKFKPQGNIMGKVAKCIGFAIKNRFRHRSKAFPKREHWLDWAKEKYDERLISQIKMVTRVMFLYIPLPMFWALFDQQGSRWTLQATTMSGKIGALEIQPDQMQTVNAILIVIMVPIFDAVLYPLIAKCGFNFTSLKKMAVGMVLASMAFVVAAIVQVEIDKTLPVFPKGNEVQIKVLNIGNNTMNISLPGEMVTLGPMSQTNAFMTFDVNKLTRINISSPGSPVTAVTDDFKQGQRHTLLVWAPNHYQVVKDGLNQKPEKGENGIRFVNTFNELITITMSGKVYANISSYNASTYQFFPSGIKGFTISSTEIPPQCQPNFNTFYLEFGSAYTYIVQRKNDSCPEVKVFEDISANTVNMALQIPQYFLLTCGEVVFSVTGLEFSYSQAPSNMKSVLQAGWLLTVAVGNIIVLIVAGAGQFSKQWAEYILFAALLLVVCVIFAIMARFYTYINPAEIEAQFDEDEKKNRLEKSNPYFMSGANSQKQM
Nature of the experiment: TP_TRANSPORTER: inhibition of Gly-Sar uptake in Caco-2 cells. Format: functional, cell-based.

pKi: −log10 of the molar value.

`CN(CC(=O)O)C(=O)[C@@H](N)CCC(=O)OCCOCn1cnc2c(=O)[nH]c(N)nc21`: the pKi was 3.55.

The compound `Cc1cn(COC(=O)C(O)C[C@H](N)C(=O)N(C)CC(=O)O)c(=O)[nH]c1=O` (some centres not stated) gave a pKi of 3.68.

One may read the pKi as the Ki on a negative log10 scale, so that one unit is a factor of ten.
